Legend:
C57BL/6J mice = assay: PG-induced breakdown of the BRB in mice after intraocular injection of a vasopermeability factor; format: in vivo; details: 50 mg/kg/day by gavage for 3 days, then intraocular PGE1 or PGE2 10^-5 M
Method: Six to seven week old male C57BL/6J mice are treated in accordance with the ARVO resolution on the care of animals in research. Mice are treated by gavage with vehicle or vehicle containing 50 mg/kg/day of PKC412, PTK787, SU1498, or Gleevec. After 3 days of treatment, mice are given an intraocular injection of 1 μl of vehicle containing a vasopermeability factor or vehicle alone.
Mice are anesthetized with 25 mg/kg of ketamine and 4 mg/kg of xylazine, pupils are dilated with 1% tropicamide. Intraocular injections are performed as previously described with a Harvard pump microinjection apparatus and pulled glass micropipets. Each micropipet is calibrated to deliver 1 μl of vehicle upon depression of a foot switch. […] Some mice are used for quantitative measurement of BRB breakdown using [3H]mannitol and in others leakage of albumin through retinal vessels is assessed by Western blots or immunohistochemistry.
Six or 24 hours after intraocular injections, mice are given an intraperitoneal injection of 1 μCi / gram body weight of [3H]mannitol (New England Nuclear, Boston, Mass.). […] The vials are weighed and the tissue weights are recorded. […] Radioactivity is counted with a Wallac 1409 Liquid Scintillation Counter (Gaithersburg, Md.). […]

C57B/J6 mice = assay: BRB breakdown in mice after intravitreal VEGF, quantitated with [3H]-mannitol tracer; format: in vivo
From the text: Intraperitoneally administered radiolabeled tracer can be used to quantitate BRB breakdown in mice exposed to vascular endothelial growth factor (VEGF). This technique is particularly advantageous with neonatal mice because of the technical difficulty involved with intravascular injections. Also, the comparison of retinas from injected and control eyes to tissues without a blood-tissue barrier corrects for variations in the amount of isotope injected or absorbed into the circulation.
Ten six- to seven-week-old C57B/J6 mice (Jackson Labs, Bar Harbor, Me.) are weighed to determine the proper dosage of anesthesia and tracer required. Mice are anesthetized with a solution containing 25 mg/kg ketamine (Ketaset; Fort Dodge Animal Health, Fort Dodge, Iowa) and 4 mg/kg rompun (Tranquived; Vedco, St. Joseph, Mo.) diluted 1:10 in saline prior to injection. Five mice are subjected to gavage with 50 mg/kg N-benzoyl staurosporine for three days prior to intravitreal administration of VEGF; the other five mice are subjected to gavage with vehicle.
Tropicamide (1%) is used to dilate the pupils of anesthetized mice. Under a dissecting microscope, a Harvard injector (PLI 100) is used with a glass pipet pulled to a diameter of 13-20 μm to inject 1 μl of saline containing VEGF (R&D Systems, Minneapolis, Minn.). The eyes are entered posterior to the limbus, directing the pipet toward the optic nerve. The solution is then deposited just in front of the retina without inflicting any damage to the lens. […]
One ml NCSII (Amersham, Chicago, Ill.) solubilizing solution is added to each vial and the vials are incubated overnight in a 50° C. water bath. […] The specimens are counted on a Wallac 1409 Liquid Scintillation Counter (Gaithersburg, :Md.).
The counts per mg tissue are determined for treated (with N-benzoyl staurosporine) and untreated retina, lung, and kidney. Ratios of these values for treated or untreated retina/lung or kidney and for lung/kidney are calculated. […]

[1] = mice, 50 mg/kg by gavage for three days before intravitreal VEGF 10^-6 M, [3H]-mannitol at 6 hours

| SMILES | PG-induced breakdown of the BRB (C57BL/6J mice) | leakage of radioactive tracer out of the retinal blood vessels (C57B/J6 mice; VEGF-injected mice given 50 mg/kg N-benzoyl staurosporine by gavage for three days, compared to vehicle-gavaged VEGF-injected mice) | retina/kidney ratio (C57B/J6 mice; [1]) | retina/lung ratio (cpm per mg of retina/cpm per mg of lung) (C57B/J6 mice; [1]) |
| --- | --- | --- | --- | --- |
| Clc1ccc(Nc2nnc(Cc3ccncc3)c3ccccc23)cc1 [PTK787, reference compound] | not |  |  |  |
| CO[C@@H]1[C@H](N(C)C(=O)c2ccccc2)C[C@H]2O[C@]1(C)n1c3ccccc3c3c4c(c5c6ccccc6n2c5c31)C(=O)NC4 [N-benzoyl staurosporine] | reduces PG-induced breakdown of the BRB | significantly less leakage | 0.3881±0.0436 | 0.6326±0.0656 |
